Experimental data from article PMC10179937, “Cytotoxic Activity, Topoisomerase I Inhibition and In Silico Studies of New Sesquiterpene-aryl Ester Derivatives of (-) Drimenol” (Molecules, 2023).
Where two headings read alike, the source gives them in different places.

Legend:
[1] = test system: PC-3 (prostate adenocarcinoma); test: Sulforhodamine B in vitro growth inhibition assay, PC-3; format: cell-based, human; conditions: for IC50: Homo sapiens, sulforhodamine B assay, 72 h of treatment, IC50 ± SD; for Selectivity Index (SI) MCF-10/PC-3: IC50 in non-cancerogenic cell line / IC50 in cancer cell line
Description: (§1) For this purpose, a colorimetric sulforhodamine B assay was performed to quantify the cytotoxic effect through their respective IC50 values. Each compound’s serial dilutions (12.5, 25, 50, and 100 µM) were evaluated in triplicate. In our study, the human cancer cell lines used were MCF-7 (breast adenocarcinoma); HT-29 (colorectal adenocarcinoma); PC-3 (prostate adenocarcinoma); and MCF-10 control cells (normal breast epithelium). For comparative purposes, the literature IC50 values of daunorubicin and 5-fluorouracil (5-FU), measured in the same cell lines and under the same experimental conditions, were included. Similarly, drimenol (1) was included for comparative purposes.
(§2) The sulforhodamine B assay was used. Briefly, the cells were set up at 5 × 10^3 cells per well of a 96-well microplate for 18 h. Cells were incubated at 37 °C in a humidified 5% CO2/95% air mixture and treated with the compounds at different concentrations for 72 h. At the end of drug exposure, cells were fixed with 50% trichloroacetic acid at 4 °C. After washing with distilled water, cells were stained with 0.1% sulforhodamine B, dissolved in 1% acetic acid (50 μL/well) for 30 min, and, subsequently, washed with 1% acetic acid to remove the unbound stain. The protein-bound stain was solubilized with 100 μL of 10 mM unbuffered Tris base, and the cell density was determined using a […] (wavelength 540 nm). Results are expressed as IC50 values (μM) ± SD.

[2] = test system: MCF-7 (breast adenocarcinoma); test: Sulforhodamine B in vitro growth inhibition assay, MCF-7; format: cell-based, human; conditions: for IC50: Homo sapiens, MCF7, sulforhodamine B assay, 72 h of treatment, IC50 ± SD; for Selectivity Index (SI) MCF-10/MCF-7: IC50 in non-cancerogenic cell line / IC50 in cancer cell line
Description: as §1, §2

[3] = test system: HT-29 (colorectal adenocarcinoma); test: Sulforhodamine B in vitro growth inhibition assay, HT-29; format: cell-based, human; conditions: for IC50: Homo sapiens, HT-29, sulforhodamine B assay, 72 h of treatment, IC50 ± SD; for Selectivity Index (SI) MCF-10/HT-29: IC50 in non-cancerogenic cell line / IC50 in cancer cell line
Description: as §1, §2

[4] = test system: caspases 3 and 7 on MCF-7 cells; test: Caspase-Glo 3/7 assay; format: cell-based, human; conditions: 50 μM, 24 h
Description: To determine the cell death type induced by the most promising aryl-drimane esters, we evaluated their capacity to induce apoptosis through the activation of caspases 3 and 7 on MCF-7 cells. For this purpose, 6a, 6e, 6f, 8c, 8f, and 8g were incubated for 24 h on MCF-7 cells at a concentration of 50 μM, close to the IC50 values for cytotoxicity in most compounds. […] In summary, these drimane derivatives induced apoptosis in the MCF-7 cell line, showing a potential antitumoral effect.
The activity of caspase 3/7 in treated MCF-7 cells was determined using a Caspase-Glo-3/7 Assay kit (Promega, UK—Cat. No G8090). The caspase-Glo 3/7 assay is a homogenous, luminescent assay that measures caspase-3 and -7 activities, both key-players in apoptosis. […] Luminescence was proportional to the amount of caspase present. MCF-7 cells (1 × 10^4 cells per well) were grown in a 96-well white plate and were allowed to adhere overnight. The cells were then treated for 24 h with the synthesized compounds (50 µM), with the inclusion of a blank as a control. After treatment, the Caspase-Glo® 3/7 was prepared according to the manufacturer’s guidelines. Briefly, 100 μL of Caspase-Glo 3/7 reagent was added to 100 μL of culture medium containing the cells previously treated in each well. The content was mixed gently by placing the plate on a shaker for 30 s, and the plate was incubated at room temperature in the dark for 1 h before luminescence was read on a luminometer (Berthold Sirius Single Tube Luminometer, Pforzheim, Germany). Fold change in caspase activity was obtained by first subtracting the luminescence value for the blank well from every other value, and then, expressing the average luminescence of each treatment as a fold change with respect to the average luminescence of the negative control.

[5] = test system: MCF-10 control cells (normal breast epithelium); test: Sulforhodamine B in vitro growth inhibition assay, MCF-10 control cells; format: cell-based; conditions: Homo sapiens, MCF10, 72 h of treatment, IC50 ± SD, non-tumoral cells
Description: as §1, §2

[6] = test system: PC-3 (prostate adenocarcinoma); conditions: literature value, same experimental conditions; cited from earlier work
[7] = test system: MCF-7 (breast adenocarcinoma); conditions: cited from earlier work; for IC50: literature value, same experimental conditions
[8] = test system: MCF-10 control cells (normal breast epithelium); conditions: literature value; cited from earlier work
[9] = test system: HT-29 (colorectal adenocarcinoma); set-up: method as in PMID 25412045; conditions: literature value, same experimental conditions; cited from earlier work

Compound	IC50 [1]	IC50 [2]	IC50 [3]	melting point	caspases-3/7 activity over the control [4]	IC50 [5]	Selectivity Index (SI) MCF-10/PC-3 [1]	Selectivity Index (SI) MCF-10/MCF-7 [2]	Selectivity Index (SI) MCF-10/HT-29 [3]	IC50 [6]	IC50 [7]	cytotoxicity ([7]; two cell lines, ref Montenegro et al.)	IC50 [8]	IC50 [9]
CC1=CCC2C(C)(C)CCC[C@]2(C)[C@H]1COC(=O)c1cc(O)c(C)c(O)c1 (stereo partly drawn) [8c, ((1S,8aS)-2,5,5,8a-tetramethyl-1,4,4a,5,6,7,8,8a-octahydronaphthalen-1-yl)methyl-3,5-dihydroxy-4-methylbenzoate]	> 100 µM	35.9 ± 6.4 µM	> 100 µM	–	two-fold	> 100 µM	–	–	–	–	–	–	–	–
COc1cc(OC(=O)C2=C(C)CCC3C(C)(C)CCC[C@]23C)ccc1C=O (stereo partly drawn) [6e, 4-Formyl-3-methoxyphenyl-(8aS)-2,5,5,8a-tetramethyl-3,4,4a,5,6,7,8,8a-octahydronaphthalene-1-carboxylate]	52.9 ± 8.2 µM	38.3 ± 2.6 µM	38.1 ± 2 µM	–	two-fold	50 ± 8.9 µM	0.9	1.3	1.3	–	–	–	–	–
CC1=CCC2C(C)(C)CCCC2(C)C1CO (stereo not drawn) [Drimenol]	–	–	–	–	–	–	–	–	–	> 100 µM	> 100 µM	inactive	–	–
COC(=O)c1c(C)cc(OC(=O)C2=C(C)CCC3C(C)(C)CCC[C@]23C)cc1O (stereo partly drawn) [6c, 3-Hydroxy-4-(methoxycarbonyl)-5-methylphenyl-(8aS)-2,5,5,8a-tetramethyl-3,4,4a,5,6,7,8,8a-octahydronaphthalene-1-carboxylate]	> 100 µM	> 100 µM	> 100 µM	124 °C	–	> 100 µM	–	–	–	–	–	–	–	–
COc1cc(OC)cc(C(=O)OC[C@H]2C(C)=CCC3C(C)(C)CCC[C@@]32C)c1 (stereo partly drawn) [8a, ((1S,8aS)-2,5,5,8a-tetramethyl-1,4,4a,5,6,7,8,8a-octahydronaphthalen-1-yl)methyl-3,5-dimethoxybenzoate]	> 100 µM	> 100 µM	> 100 µM	–	–	44.8 ± 3.1 µM	–	–	–	–	–	–	–	–
COc1cc(C=O)ccc1OC(=O)C1=C(C)CCC2C(C)(C)CCC[C@]12C (stereo partly drawn) [6f, 4-Formyl-2-methoxyphenyl-(8aS)-2,5,5,8a-tetramethyl-3,4,4a,5,6,7,8,8a-octahydronaphthalene-1-carboxylate]	30.9 ± 2.5 µM	22.4 ± 1 µM	58 ± 3.9 µM	–	two-fold	16.5 ± 0.9 µM	0.5	0.7	0.3	–	–	–	–	–
COc1cc(C)cc(OC(=O)C2=C(C)CCC3C(C)(C)CCC[C@]23C)c1 (stereo partly drawn) [6b, 3-Methoxy-5-methylphenyl-(8aS)-2,5,5,8a-tetramethyl-3,4,4a,5,6,7,8,8a-octahydronaphthalene-1-carboxylate]	> 100 µM	> 100 µM	> 100 µM	–	–	67.2 ± 15.3 µM	–	–	–	–	–	–	–	–
COC(=O)c1c(C)cc(OC(=O)C2=C(C)CCC3C(C)(C)CCC[C@]23C)c(C)c1O (stereo partly drawn) [6d, 3-Hydroxy-4-(methoxycarbonyl)-2,5-dimethylphenyl-(8aS)-2,5,5,8a-tetramethyl-3,4,4a,5,6,7,8,8a-octahydronaphthalene-1-carboxylate]	> 100 µM	> 100 µM	> 100 µM	128 °C	–	> 100 µM	–	–	–	–	–	–	–	–
O=c1[nH]cc(F)c(=O)[nH]1 [5-FU, 5-fluorouracil]	–	–	–	–	–	–	0.03	0.02	0.2	16.4 ± 0.6 µM	22.3 ± 0.2 µM	–	< 0.5 µM	2.9 ± 0.7 µM

More lines, main results first:

IC50 [1]	IC50 [2]	IC50 [3]	melting point	Compound	caspases-3/7 activity over the control [4]	IC50 [5]	Selectivity Index (SI) MCF-10/PC-3 [1]	Selectivity Index (SI) MCF-10/MCF-7 [2]	Selectivity Index (SI) MCF-10/HT-29 [3]	IC50 [6]	IC50 [7]	cytotoxicity ([7]; two cell lines, ref Montenegro et al.)	IC50 [8]	IC50 [9]
27.7 ± 2.6 µM	28.7 ± 3.5 µM	31.3 ± 2 µM	–	COc1cc(OC)c(C(=O)OC[C@H]2C(C)=CCC3C(C)(C)CCC[C@@]32C)cc1OC (stereo partly drawn) [8g, ((1S,8aS)-2,5,5,8a-tetramethyl-1,4,4a,5,6,7,8,8a-octahydronaphthalen-1-yl)methyl-2,4,5-trimethoxybenzoate]	3.5 fold	16.3 ± 0.6 µM	0.6	0.6	0.5	–	–	–	–	–
33.3 ± 2.9 µM	18.4 ± 0.5 µM	44.7 ± 6.7 µM	105 °C	COc1cc(C(=O)OC[C@H]2C(C)=CCC3C(C)(C)CCC[C@@]32C)cc(OC)c1O (stereo partly drawn) [8d, ((1S,8aS)-2,5,5,8a-tetramethyl-1,4,4a,5,6,7,8,8a-octahydronaphthalen-1-yl)methyl-4-hydroxy-3,5-dimethoxybenzoate]	–	16.5 ± 0.5 µM	0.5	0.9	0.4	–	–	–	–	–
> 100 µM	> 100 µM	> 100 µM	–	COc1cc(C(=O)OC[C@H]2C(C)=CCC3C(C)(C)CCC[C@@]32C)cc(OC)c1C (stereo partly drawn) [8b, ((1S,8aS)-2,5,5,8a-tetramethyl-1,4,4a,5,6,7,8,8a-octahydronaphthalen-1-yl)methyl 3,5-dimethoxy-4-methylbenzoate]	–	21.2 ± 3.1 µM	–	–	–	–	–	–	–	–
76.9 ± 10.2 µM	51 ± 10 µM	51.5 ± 3.2 µM	–	COc1cc(C(=O)OC[C@H]2C(C)=CCC3C(C)(C)CCC[C@@]32C)cc(OC)c1OC (stereo partly drawn) [8e, ((1S,8aS)-2,5,5,8a-tetramethyl-1,4,4a,5,6,7,8,8a-octahydronaphthalen-1-yl)methyl-3,4,5-trimethoxybenzoate]	–	32.1 ± 8.3 µM	0.4	0.6	0.6	–	–	–	–	–
7.1 ± 1.1 µM	6.2 ± 0.5 µM	26.2 ± 5.4 µM	–	COc1ccc(C(=O)OC[C@H]2C(C)=CCC3C(C)(C)CCC[C@@]32C)c(OC)c1OC (stereo partly drawn) [8f, ((1S,8aS)-2,5,5,8a-tetramethyl-1,4,4a,5,6,7,8,8a-octahydronaphthalen-1-yl)methyl-2,3,4-trimethoxybenzoate]	3.5 fold	6.8 ± 0.9 µM	–	–	–	–	–	–	–	–
